# Source: US10072001B2, “Tank-binding kinase inhibitor compounds” (Gilead Sciences, Inc., priority 2014, dated 2018)
# How the values were obtained:
# [1] = biological target: IKKε (Homo sapiens (Human), UniProt Q14164); test: TR-FRET kinase assay, IKKε; type: biochemical; details: full length recombinant IKKε 0.3 nM, 2x Km ATP, 1 μM peptide, 240 min at 25° C.; geometric mean of minimum four determinations
# Excerpt: Biological Assay for TBK1 and IKKs:
# [2] = biological target: TBK1 (Homo sapiens (Human), UniProt Q9UHD2); test: TR-FRET kinase assay, TBK1; details: read-out: TBK1-IC50; full length recombinant TBK1 2.5 nM, 2x Km ATP, 1 μM peptide, 240 min at 25° C.; geometric mean of minimum four determinations
# TBK1, sequence (Q9UHD2 whole entry): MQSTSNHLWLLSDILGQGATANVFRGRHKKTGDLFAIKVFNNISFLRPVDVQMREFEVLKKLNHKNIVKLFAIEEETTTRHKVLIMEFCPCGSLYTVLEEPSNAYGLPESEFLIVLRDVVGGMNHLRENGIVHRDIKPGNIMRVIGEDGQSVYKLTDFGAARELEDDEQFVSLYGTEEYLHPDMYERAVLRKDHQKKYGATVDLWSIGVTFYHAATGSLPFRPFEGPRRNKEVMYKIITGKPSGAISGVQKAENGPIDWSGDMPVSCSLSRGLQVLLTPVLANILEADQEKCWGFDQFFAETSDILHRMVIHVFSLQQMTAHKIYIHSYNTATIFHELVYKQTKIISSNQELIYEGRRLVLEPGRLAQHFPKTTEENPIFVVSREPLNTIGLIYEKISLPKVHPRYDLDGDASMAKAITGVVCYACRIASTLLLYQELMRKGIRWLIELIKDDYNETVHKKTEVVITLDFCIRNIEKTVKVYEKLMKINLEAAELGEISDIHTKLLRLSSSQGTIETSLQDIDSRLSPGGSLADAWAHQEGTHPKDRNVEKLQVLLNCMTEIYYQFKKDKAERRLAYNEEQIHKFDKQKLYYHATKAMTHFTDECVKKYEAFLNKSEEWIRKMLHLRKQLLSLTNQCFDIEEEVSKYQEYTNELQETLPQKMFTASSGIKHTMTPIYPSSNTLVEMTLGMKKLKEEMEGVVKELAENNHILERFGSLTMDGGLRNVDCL
# IKKε, sequence (Q14164 whole entry): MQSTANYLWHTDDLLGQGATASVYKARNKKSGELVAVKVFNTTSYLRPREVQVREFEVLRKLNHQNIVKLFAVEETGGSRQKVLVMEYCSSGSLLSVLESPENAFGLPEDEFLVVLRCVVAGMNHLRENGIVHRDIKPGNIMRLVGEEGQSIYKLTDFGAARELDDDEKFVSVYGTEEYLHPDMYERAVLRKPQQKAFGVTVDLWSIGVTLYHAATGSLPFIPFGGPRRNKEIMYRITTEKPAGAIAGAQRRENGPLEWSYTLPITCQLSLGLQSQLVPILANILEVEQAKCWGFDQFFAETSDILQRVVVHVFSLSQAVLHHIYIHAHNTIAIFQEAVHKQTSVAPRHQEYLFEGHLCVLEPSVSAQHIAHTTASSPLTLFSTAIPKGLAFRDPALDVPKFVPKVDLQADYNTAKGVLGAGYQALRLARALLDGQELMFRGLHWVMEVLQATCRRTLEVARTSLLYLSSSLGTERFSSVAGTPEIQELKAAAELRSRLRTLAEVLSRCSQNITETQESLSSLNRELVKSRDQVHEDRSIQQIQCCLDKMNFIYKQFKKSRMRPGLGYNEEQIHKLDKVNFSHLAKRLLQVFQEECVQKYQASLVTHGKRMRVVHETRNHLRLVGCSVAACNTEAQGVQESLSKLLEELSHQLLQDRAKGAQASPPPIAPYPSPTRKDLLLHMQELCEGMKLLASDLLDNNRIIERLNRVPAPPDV
smiles,measurement,setting,value
"N#Cc1cc(-c2ccnc3[nH]c(C4=CCN(C(=O)CO)C4)cc23)ccc1OC1CCOCC1 [Example 182, 5-(2-(1-(2-hydroxyacetyl)-2,5-dihydro-1H-pyrrol-3-yl)-1H-pyrrolo[2,3-b]pyridin-4-yl)-2-((tetrahydro-2H-pyran-4-yl)oxy)benzonitrile]",IC50,[1],35.5 nM
same,IC50,[2],14.8 nM
"N#Cc1cc(-c2ncnc3[nH]c(-c4ccc(Cl)cc4)cc23)ccc1OC1CCN(C(=O)CO)CC1 [Example 127, 5-(6-(4-chlorophenyl)-7H-pyrrolo[2,3-d]pyrimidin-4-yl)-2-((1-(2-hydroxyacetyl)piperidin-4-yl)oxy)benzonitrile]",IC50,[1],9.58 nM
same,IC50,[2],4.64 nM
"N#Cc1cc(-c2ccnc3[nH]c(-c4ccc(N5CCOCC5)cc4)nc23)ccc1OC1CCN(C(=O)CO)CC1 [Example 198, 2-((1-(2-hydroxyacetyl)piperidin-4-yl)oxy)-5-(2-(4-morpholinophenyl)-3H-imidazo[4,5-b]pyridin-7-yl)benzonitrile]",IC50,[1],3.42 nM
same,IC50,[2],2.3 nM
"Cc1noc(C)c1-c1cc2c(-c3ccc(OC4CCOCC4)c(C#N)c3)ccnc2[nH]1 [Example 216, 5-(2-(3,5-dimethylisoxazol-4-yl)-1H-pyrrolo[2,3-b]pyridin-4-yl)-2-((tetrahydro-2H-pyran-4-yl)oxy)benzonitrile]",IC50,[1],121 nM
same,IC50,[2],67.6 nM
"Cc1cc(N2CCOCC2)ccc1-c1cc2c(-c3ccc(OC4CCOCC4)c(C#N)c3)ccnc2[nH]1 [Example 124, 5-(2-(2-methyl-4-morpholinophenyl)-1H-pyrrolo[2,3-b]pyridin-4-yl)-2-((tetrahydro-2H-pyran-4-yl)oxy)benzonitrile]",IC50,[1],18.6 nM
same,IC50,[2],5.9 nM
"Cn1cc(-c2cc3c(-c4ccc(OC5CCOCC5)c(C#N)c4)ncnc3[nH]2)cn1 [Example 104, 5-(6-(1-methyl-1H-pyrazol-4-yl)-7H-pyrrolo[2,3-d]pyrimidin-4-yl)-2-((tetrahydro-2H-pyran-4-yl)oxy)benzonitrile]",IC50,[1],8.18 nM
same,IC50,[2],3.81 nM
"CN1CCN(c2ccc(-c3nc4c(-c5ccc(OC6CCN(C(=O)CO)CC6)c(C#N)c5)ncnc4[nH]3)cc2)CC1 [Example 251, 2-((1-(2-hydroxyacetyl)piperidin-4-yl)oxy)-5-(8-(4-(4-methylpiperazin-1-yl)phenyl)-9H-purin-6-yl)benzonitrile]",IC50,[1],0.815 nM
same,IC50,[2],0.883 nM
"C[C@H](O)C(=O)N1CC[C@@H](Oc2ccc(-c3ncnc4[nH]c(-c5ccc(N6CCOCC6)cc5)nc34)cc2C#N)C1 [Example 210, 2-(((R)-1-((S)-2-hydroxypropanoyl)pyrrolidin-3-yl)oxy)-5-(8-(4-morpholinophenyl)-9H-purin-6-yl)benzonitrile]",IC50,[1],> 875 nM
same,IC50,[2],38.9 nM
"CC(C)(C)OC(=O)N1CCC(Oc2ccc(-c3ccnc4[nH]c(-c5ccc(N6CCOCC6)cc5)cc34)cc2C#N)CC1 [Example 21, tert-butyl 4-(2-cyano-4-(2-(4-morpholinophenyl)-1H-pyrrolo[2,3-b]pyridin-4-yl)phenoxy)piperidine-1-carboxylate]",IC50,[1],> 1000 nM
same,IC50,[2],696 nM
"CN1CCN(C(=O)c2ccc(-c3cc4c(-c5ccc(OC6CCN(C(=O)CO)CC6)c(C#N)c5)ncnc4[nH]3)cc2)CC1 [Example 161, 2-((1-(2-Hydroxyacetyl)piperidin-4-yl)oxy)-5-(6-(4-(4-methylpiperazine-1-carbonyl)phenyl)-7H-pyrrolo[2,3-d]pyrimidin-4-yl)benzonitrile]",IC50,[1],1.12 nM
same,IC50,[2],1.56 nM
"CC(=O)N1CC(Oc2ccc(-c3ccnc4[nH]c(-c5ccc(N6CCOCC6)cc5)cc34)cc2C#N)C1 [Example 153, 2-((1-acetylazetidin-3-yl)oxy)-5-(2-(4-morpholinophenyl)-1H-pyrrolo[2,3-b]pyridin-4-yl)benzonitrile]",IC50,[1],195 nM
same,IC50,[2],51.1 nM
"N#Cc1cc(-c2ncnc3[nH]c(-c4ccc(OCCN5CCCC5)cc4)cc23)ccc1OCC1CC1 [Example 138, 2-(cyclopropylmethoxy)-5-(6-(4-(2-(pyrrolidin-1-yl)ethoxy)phenyl)-7H-pyrrolo[2,3-d]pyrimidin-4-yl)benzonitrile]",IC50,[1],3.9 nM
same,IC50,[2],5.88 nM
"N#Cc1cc(-c2ncnc3[nH]c(-c4ccc(OCCN5CCCC5)cc4)cc23)ccc1OC1CCOCC1 [Example 226, 5-(6-(4-(2-(pyrrolidin-1-yl)ethoxy)phenyl)-7H-pyrrolo[2,3-d]pyrimidin-4-yl)-2-((tetrahydro-2H-pyran-4-yl)oxy)benzonitrile]",IC50,[1],1.8 nM
same,IC50,[2],1.24 nM
"N#Cc1cc(-c2ccnc3[nH]c(-c4ccc(N5CCOCC5)cc4)cc23)ccc1N1CC(O)C1 [Example 52, 2-(3-hydroxyazetidin-1-yl)-5-(2-(4-morpholinophenyl)-1H-pyrrolo[2,3-b]pyridin-4-yl)benzonitrile]",IC50,[1],3.33 nM
same,IC50,[2],15.6 nM
"CC(C)(O)c1ccc(-c2cc3c(-c4ccc(O[C@@H]5CCNC5)c(C#N)c4)ccnc3[nH]2)cc1 [Example 151, (R)-5-(2-(4-(2-hydroxypropan-2-yl)phenyl)-1H-pyrrolo[2,3-b]pyridin-4-yl)-2-(pyrrolidin-3-yloxy)benzonitrile]",IC50,[1],120 nM
same,IC50,[2],43 nM
"N#Cc1cc(-c2ccnc3[nH]c(C4=CCN(C5COC5)C4)cc23)ccc1OC1CCOCC1 [Example 178, 5-(2-(1-(oxetan-3-yl)-2,5-dihydro-1H-pyrrol-3-yl)-1H-pyrrolo[2,3-b]pyridin-4-yl)-2-((tetrahydro-2H-pyran-4-yl)oxy)benzonitrile]",IC50,[1],18.3 nM
same,IC50,[2],7.82 nM
"CS(=O)(=O)N1CCN(c2ccc(-c3cc4c(-c5ccc(OC6CCOCC6)c(C#N)c5)ccnc4[nH]3)cc2)CC1 [Example 55, 5-(2-(4-(4-(methylsulfonyl)piperazin-1-yl)phenyl)-1H-pyrrolo[2,3-b]pyridin-4-yl)-2-((tetrahydro-2H-pyran-4-yl)oxy)benzonitrile]",IC50,[1],> 1000 nM
same,IC50,[2],2.84 nM
"N#Cc1cc(-c2ccnc3[nH]c(C4=CCC5(CC4)OCCO5)cc23)ccc1OC1CCOCC1 [Example 180, 5-(2-(1,4-dioxaspiro[4.5]dec-7-en-8-yl)-1H-pyrrolo[2,3-b]pyridin-4-yl)-2-((tetrahydro-2H-pyran-4-yl)oxy)benzonitrile]",IC50,[1],20.7 nM
same,IC50,[2],3.1 nM
"N#Cc1cc(-c2ccnc3[nH]c(C#CC4CCOCC4)cc23)ccc1OC1CCOCC1 [Example 35, 5-(2-((tetrahydro-2H-pyran-4-yl)ethynyl)-1H-pyrrolo[2,3-b]pyridin-4-yl)-2-((tetrahydro-2H-pyran-4-yl)oxy)benzonitrile]",IC50,[2],52.8 nM
"N#Cc1cc(-c2ncnc3[nH]c(-c4ccc(N5CCN(CC(F)F)CC5)cc4)cc23)ccc1OC1CCN(C(=O)CO)CC1 [Example 264, 5-(6-(4-(4-(2,2-difluoroethyl)piperazin-1-yl)phenyl)-7H-pyrrolo[2,3-d]pyrimidin-4-yl)-2-((1-(2-hydroxyacetyl)piperidin-4-yl)oxy)benzonitrile]",IC50,[2],0.91 nM
"N#Cc1cc(-c2ncnc3[nH]ccc23)ccc1OC1CCOCC1 [Example 108, 5-(7H-pyrrolo[2,3-d]pyrimidin-4-yl)-2-((tetrahydro-2H-pyran-4-yl)oxy)benzonitrile]",IC50,[1],2230 nM
"N#Cc1cc(-c2ncnc3[nH]c(-c4ccc(N5CCOCC5)nc4)cc23)ccc1OC1CCOCC1 [Example 155, 5-(6-(6-morpholinopyridin-3-yl)-7H-pyrrolo[2,3-d]pyrimidin-4-yl)-2-((tetrahydro-2H-pyran-4-yl)oxy)benzonitrile]",IC50,[2],4.39 nM
"Cc1ncc(-c2nc3c(-c4ccc(OC5CCOCC5)c(C#N)c4)ncnc3[nH]2)s1 [Example 231, 5-(8-(2-methylthiazol-5-yl)-9H-purin-6-yl)-2-((tetrahydro-2H-pyran-4-yl)oxy)benzonitrile]",IC50,[2],52.8 nM
"COc1cc(-c2cc3c(-c4ccc(OC5CCOCC5)c(C#N)c4)ncnc3[nH]2)ccc1N1CCOCC1 [Example 136, 5-(6-(3-methoxy-4-morpholinophenyl)-7H-pyrrolo[2,3-d]pyrimidin-4-yl)-2-((tetrahydro-2H-pyran-4-yl)oxy)benzonitrile]",IC50,[2],1 nM
"CC(C)(O)c1ccc(-c2cc3c(-c4ccc(OC5CCN(C(=O)CO)CC5)c(C#N)c4)ncnc3[nH]2)cn1 [Example 132, 2-((1-(2-hydroxyacetyl)piperidin-4-yl)oxy)-5-(6-(6-(2-hydroxypropan-2-yl)pyridin-3-yl)-7H-pyrrolo[2,3-d]pyrimidin-4-yl)benzonitrile]",IC50,[2],3.26 nM
"N#Cc1cc(-c2cc3c(-c4ccc(OC5CCOCC5)c(C#N)c4)ncnc3[nH]2)ccc1OC1CCOCC1 [Example 223, 5,5′-(7H-pyrrolo[2,3-d]pyrimidine-4,6-diyl)bis(2-((tetrahydro-2H-pyran-4-yl)oxy)benzonitrile)]",IC50,[2],2.84 nM
"COC(=O)c1ccc(-c2cc3c(-c4ccc(OC5CCOCC5)c(C#N)c4)ccnc3[nH]2)cc1 [Example 238, Methyl 4-(4-(3-cyano-4-((tetrahydro-2H-pyran-4-yl)oxy)phenyl)-1H-pyrrolo[2,3-b]pyridin-2-yl)benzoate]",IC50,[1],1000 nM
"N#CCC(=O)N1CCN(c2ccc(-c3cc4c(-c5ccc(OC6CCOCC6)c(C#N)c5)ccnc4[nH]3)cc2)CC1 [Example 57, 5-(2-(4-(4-(2-cyanoacetyl)piperazin-1-yl)phenyl)-1H-pyrrolo[2,3-b]pyridin-4-yl)-2-((tetrahydro-2H-pyran-4-yl)oxy)benzonitrile]",IC50,[1],2.98 nM
"N#Cc1cc(-c2ncnc3[nH]c(C4=CCC5(CC4)OCCO5)cc23)ccc1OC1CCN(C(=O)CO)CC1 [Example 175, 5-(6-(1,4-dioxaspiro[4.5]dec-7-en-8-yl)-7H-pyrrolo[2,3-d]pyrimidin-4-yl)-2-((1-(2-hydroxyacetyl)piperidin-4-yl)oxy)benzonitrile]",IC50,[1],5.84 nM
"N#Cc1cc(-c2ccnc3[nH]c(-c4ccc(N5CC6(COC6)C5)cc4)cc23)ccc1OC1CCOCC1 [Example 46, 5-(2-(4-(2-oxa-6-azaspiro[3.3]heptan-6-yl)phenyl)-1H-pyrrolo[2,3-b]pyridin-4-yl)-2-((tetrahydro-2H-pyran-4-yl)oxy)benzonitrile]",IC50,[1],13 nM
